Test results published in the METLIN SMRT retention time set (Domingo-Almenara et al. 2019).

Assay: gradient 5% acetonitrile 3 min, to 50% in 2 min, to 85% in 15 min, held 3 min, 100 µL/min
Conditions: column: Zorbax Extend-C18 2.1 x 50 mm; eluents: water / acetonitrile, 0.1% formic acid
Summary of the method: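 In both positive and negative ionization mode, a quadrupole time-of-flight mass spectrometer coupled to HPLC analyzed pure standards run in mixtures of ~100 molecules. The Zorbax Extend-C18 column (2.1 × 50 mm, 1.8 μm) was operated at 100 μL/min with water and acetonitrile, each containing 0.1% formic acid. The dead volume was 40 μL and the dwell volume 900 μL. Retention time came from adduct peaks that were computationally picked and individually inspected by hand.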

SMILES	RP-LC retention time
O=C(NCC(O)c1cccc2ccccc12)Nc1c(F)cccc1F (centres undefined)	745 s
CSc1ccc(NC(=O)Nc2ccccc2C(N)=O)cc1	846 s
O=C(N1CCCC(c2nnc(-c3cccs3)o2)C1)C1(c2ccccc2)CCOCC1 (centres undefined)	812 s
COc1ccc(OC)c(C2CN(C(=O)C3CCCC3)CC2C(=O)N2CCCCC2)c1 (centres undefined)	831 s
CCOCCCNC(=O)C1CCCN(c2nc3ccc(Br)cc3[nH]2)C1 (centres undefined)	625 s
O=C(Nc1cccn2c(C3CCC3)nnc12)c1ccc(Cl)s1	871 s
CC1(C)O[C@H]2CC(=O)OC[C@]23[C@H]2CC[C@@]4(C)[C@H](c5ccoc5)OC(=O)C5O[C@]54[C@]2(C)C(=O)C[C@@H]13 (some centres undefined)	918 s
Cc1ccc(Nc2ncccc2S(N)(=O)=O)cc1C	852 s
ONC(=NCc1ccccc1)c1ccccc1	690 s
O=C(O)c1cn(-c2ccccc2F)nn1	650 s
Cc1cccc(NS(=O)(=O)c2ccc3c(c2)C(=O)N(C)c2ncccc2O3)c1C	970 s
Cc1nn(C)cc1S(=O)(=O)N(Cc1ccccc1)c1ccccc1	861 s
NC(=O)C1CCN(C2=NC(=O)/C(=C\c3ccc(-c4ccc(F)cc4)o3)S2)CC1	671 s
CC(C)(C)OC(=O)Cn1nc2ccc(S(=O)(=O)N3CCSCC3)cn2c1=O	888 s
Cc1nnc(C2CC3(CCN(CCc4ccccc4)CC3)CN2Cc2ccccc2)o1 (centres undefined)	656 s
CCC(=O)N1CCOc2ccc(N3CCOCC3)cc2C1	630 s
O=C(NCCn1c(=O)n(Cc2ccc(F)cc2)c2cccnc21)c1cnccn1	719 s
O=C(C1CCCN(c2ncnc3c2nc2n3CCCCC2)C1)N1CCN(c2ccccc2)CC1 (centres undefined)	803 s
Cc1nnc2cc(N3CCN(Cc4cn[nH]c4-c4ccccc4)CC3)cnn12	556 s
CC(C)Cn1c(=O)c2sccc2n2c(CCC(=O)NCc3cc(F)ccc3F)nnc12	622 s

SMILES	RP-LC retention time
CC(C)c1ccc(-n2ccnc(NC(=O)Nc3ccc(F)cc3)c2=O)cc1	1100 s
c1cn(-c2cc(N3CCCCC3)ncn2)cn1	613 s
O=C(Cc1cccs1)N1CCC(c2nnc(C(F)(F)F)o2)CC1	752 s
CN1C(=O)c2cc(S(=O)(=O)Nc3cc(F)cc(F)c3)ccc2Oc2cccnc21	936 s
O=C(c1ccco1)N1CCCCC1c1nc(C2CC2)n[nH]1 (centres undefined)	625 s
O=C(NCCCN1CCOCC1)c1c(OCC2CC2)cc(=O)n2c1CCCCC2	568 s
Cn1c(CNC(=O)C2(C)CCCCC(=O)N2)nc2ccccc21 (centres undefined)	573 s
CCCCCNC(=O)C1CCCN(S(=O)(=O)c2cc(Cl)ccc2OC)C1 (centres undefined)	960 s
CC(C)N1CCn2cc(S(=O)(=O)NCc3ccc(F)cc3Cl)cc2C1=O	788 s
CCn1c(C(=O)N2CCOCC2)cc2c(=O)oc3ccccc3c21	713 s
Cc1nc2ccccc2c(=O)n1-c1ccc(NC(=O)C2CCN(S(=O)(=O)N3CCCC3)CC2)cc1	778 s
CCCn1c(=O)sc2cc(S(=O)(=O)N3CCC(C(=O)NCc4cccs4)CC3)ccc21	880 s
CC(C)CCNC(=O)Cn1nc(S(=O)(=O)c2cccc(F)c2)ccc1=O	757 s
CCOC(=O)C1CCCN(C(=O)c2cn(-c3cc(N4CCSCC4)ncn3)cn2)C1 (centres undefined)	802 s
O=C(Cn1nc2c(Oc3ccc(Cl)cc3)nccn2c1=O)Nc1ccc(F)c(Cl)c1	990 s
OC[C@@H]1CNC[C@H]1C1CCN(Cc2ccc(Cl)c(F)c2)CC1	542 s
COc1ccc(C(=O)N2C[C@@H](Oc3cccnc3)C[C@H]2C(=O)NC2CC2)cn1	562 s
CCC(C)NC(=O)c1ccc(NC(=O)C2CC2)cc1N1CCCCCC1 (centres undefined)	738 s
CCn1cnc(S(=O)(=O)N2CCCC(C(=O)Nc3cccc(C(F)(F)F)c3)C2)c1 (centres undefined)	871 s

Continued, values first:

RP-LC retention time	SMILES
709 s	CN1C(=O)CCc2cc(NC(=O)Cc3ccsc3)ccc21
790 s	CCOc1cccc2c1OC1(C)CC2NC(=O)N1c1cccc(C(=O)NCc2cccs2)c1 (centres undefined)
894 s	CCc1noc(NC(C)=O)c1-c1ccc(OC)c(S(=O)(=O)Nc2cccc(Cl)c2C)c1
984 s	CN(C)c1ccc(C(=O)N2CCCC2c2nc(-c3ccc(F)cc3F)no2)cc1 (centres undefined)
873 s	O=C(CSC1CCc2ccccc2NC1=O)Nc1ccc(F)c(Cl)c1 (centres undefined)
1050 s	COC(=O)c1sccc1NC(=O)N1CCCC1c1nc(-c2ccccc2)no1 (centres undefined)
748 s	COc1cccc(CNC(=O)C2(C)Oc3cccnc3N(C)C2=O)c1 (centres undefined)
929 s	COc1ccc(OC)c(-c2cn3ccn(-c4ccc(F)c(Cl)c4)c(=O)c3n2)c1
659 s	O=C(Nc1cccc(-c2ccc(N3CCOCC3)nn2)c1)Nc1ccc2c(c1)OCCO2
753 s	O=C(OCc1cccnc1)c1cn(-c2cccc(F)c2)c(=O)c2ccccc12
1040 s	O=C(c1ccc(F)c(Cl)c1)N1CCCC1c1nc(-c2ccccc2)no1 (centres undefined)
726 s	COC(=O)c1ncn2c1C(=O)N(c1ccccc1C)C(C)(C(=O)NCc1ccc(C)cc1)C2 (centres undefined)
737 s	Cc1ccc(CN2C(=O)COC[C@H]2C(=O)NCc2ccco2)cc1
857 s	CC1=C(c2ccc(F)cc2)S(=O)(=O)N=C1N1CCCN(C(=O)c2ccc(C)s2)CC1
1020 s	O=C(CCC1CCCCC1)Nc1nc(-c2ccc3c(c2)NC(=O)CO3)cs1
579 s	CN1CCN(CCNC(=O)c2ccc3nc(-c4ccc(Cl)cc4)cn3c2)CC1
893 s	CCc1ccccc1NC(=O)C1CCN(S(=O)(=O)c2ccc3c(c2)NC(=O)C(CC)O3)CC1 (centres undefined)
651 s	CCn1cnc2cc(CNC(=O)c3ccc(C(F)(F)F)cc3)ccc21
738 s	Cc1ccc(-c2ncccc2CNS(=O)(=O)c2ccc(F)c(F)c2)cc1
816 s	CCn1ccc(C(=O)N2CCCC2c2ccc(F)cc2)n1 (centres undefined)
846 s	COc1ccc(-c2cn3ccn(-c4ccc5c(c4)CCC5)c(=O)c3n2)cc1OC
845 s	COc1ccc(CNC(=O)C2(C)CCN(C(=O)Nc3cccc(SC)c3)CC2)cc1
716 s	O=C(Cn1cccc1-c1nc(-c2ccccc2)cs1)N1CCC(N2CCCCC2)CC1
976 s	CCn1cc(-c2nc(CC(=O)N3CCN(c4ccccc4F)CC3)cs2)c2cccnc21
854 s	COC(=O)c1cn(Cc2cccc(C)c2)c2nc(C)ccc2c1=O

RP-LC retention time	SMILES
734 s	CCc1cc(=O)n(CC(=O)N2CCc3ccccc32)c(N2CCOCC2)n1
672 s	COc1cc(Br)cc2c1OC1(C)CC2NC(=O)N1c1cccc(C(=O)O)c1 (centres undefined)
1190 s	CSc1cnc(Nc2nc(-c3ccc(Br)cc3)cs2)nc1
946 s	CCOCCCNC(=O)Cn1c(-c2cccs2)cc2cc(F)ccc21
828 s	O=C(Cc1ccccc1Cl)N1CCN(c2cc(-c3ccccc3)[nH]n2)CC1
1200 s	CCc1nc2cc(-c3noc(-c4ccc(C)s4)n3)ccc2o1
946 s	COc1ccc(Cl)cc1NC(=O)C1CCN(S(=O)(=O)c2ccc3c(c2)NC(=O)C(C)O3)CC1 (centres undefined)
870 s	COc1ccc(Cn2nccc2NC(=O)c2cc(=O)c3ccc(Br)cc3o2)cc1
1230 s	COc1ccc(Cl)cc1NC(=O)CSc1nc(-c2ccccc2C)ns1
1050 s	COc1ccccc1NC(=O)N1CCOc2ccc(Cl)cc21
827 s	COc1ccc2[nH]cc(CCNC(=O)C(C)C3CCN(S(=O)(=O)c4cccs4)CC3)c2c1 (centres undefined)
967 s	COc1cccc(CC(=O)N2CCc3cc(-c4csc(C)n4)ccc32)c1
1010 s	COc1ccc(-c2ncc3c(n2)CCN(C(=O)Nc2cccc(Br)c2)C3)cc1
626 s	COc1ccc(NC(=O)Nc2ccc(-c3cn4ccc(C)nc4n3)cc2)cc1
827 s	COc1cc2c(cc1OC)C(C(=O)Nc1ccc(F)cc1F)C(c1cccs1)N(C)C2=O (centres undefined)
698 s	COc1cccc(CNC(=O)Cn2c(=O)c3cc(C)nn3c3ncccc32)c1
640 s	COC(=O)c1cnc(N2CCN(c3ccccn3)CC2)c2ccccc12
843 s	O=c1n(Cc2nc(-c3ccc4c(c3)OCO4)no2)nc2ccc(-c3ccccc3)nn12
1080 s	COCCCn1c(=O)c2ccccc2n(Cc2nc(-c3cccc(C(F)(F)F)c3)no2)c1=O
941 s	COc1ccccc1-c1noc(C2CCCN2C(=O)Nc2cccc(Cl)c2)n1 (centres undefined)
1110 s	CN1C(=O)C2CCCCN2c2ccc(C(=O)N3CCC(Cc4ccccc4)CC3)cc21 (centres undefined)
888 s	O=c1c2nc(-c3ccc(F)cc3)cn2ccn1-c1ccc(F)c(Cl)c1
860 s	COc1cc(C(=O)Nc2nc(-c3ccc4c(c3)N(C)C(=O)CO4)cs2)cc(OC)c1OC
582 s	CCNC(=O)c1cc(C)nc2ccc(CC)cc12
855 s	COc1ccc(-n2ccc(=O)c(-c3nc(-c4ccc5c(c4)OCO5)no3)n2)cc1
